Among the test systems are BT-549; OVCAR-4; HOP-92; EKVX; SK-OV-3; MDA-MB-435; UACC-257; OVCAR-5; SK-MEL-2; SW-620; SK-MEL-5; SF-268; MDA-MB-231; NCI-H522; RXF 393; A498; KM12; 786-0; A549.
Common to all, as to test: NCI-60 cell line screen, 48 h

Consider ten molecules from ChEMBL document CHEMBL1201862, “PubChem BioAssay data set” (2004).

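Method: 48-hour compound exposure of cells in 96-well plates, five concentrations, linear interpolation of endpoints. GI50 is the concentration that inhibits growth by half.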 Calls of active or inactive are those of the source. Rule as the data show it: active = GI50 up to about 1.1 µM and inactive = higher. A value given as a limit tells only on which side of the number the result lay.

Turning to `OC1C2[C@@H](O)CCCN2C[C@@H](O)[C@H]1O` (stereo not given in full), the GI50 with BT-549, in the assay with OVCAR-4, in the assay with HOP-92, in the assay on EKVX, with SK-OV-3 and with MDA-MB-435 was > 100 µM (inactive) throughout. In addition, the GI50 in the assay with UACC-257, in the assay on OVCAR-5, in the assay on SK-MEL-2, with SW-620, in the assay with SK-MEL-5 and with SF-268 was > 100 µM (inactive) each time. The GI50 is > 100 µM (inactive) in the assay on MDA-MB-231; 71.1 µM (inactive) with NCI-H522; > 100 µM (inactive) in the assay on RXF 393; > 100 µM (inactive) with A498; > 100 µM (inactive) with KM12; > 100 µM (inactive) with 786-0. In addition, the GI50 in the assay with A549 is > 100 µM (inactive).

Consider `Ic1cccc(/C=C/CN2CCN(CCOC(c3ccccc3)c3ccccc3)CC2)c1`, for which the GI50 in the assay with BT-549 is 16.8 µM (inactive); in the assay on OVCAR-4 it was 17.5 µM (inactive); in the assay on HOP-92 it was 14.4 µM (inactive); in the assay with EKVX, 17.7 µM (inactive); with SK-OV-3 it was 21.6 µM (inactive); in the assay on MDA-MB-435, 14.4 µM (inactive). Moreover, the GI50 with UACC-257 was 15.7 µM (inactive); in the assay with OVCAR-5 it was 16.7 µM (inactive); in the assay with SK-MEL-2 it was 17.7 µM (inactive); in the assay on SW-620, 26.7 µM (inactive); with SK-MEL-5 it was 14.3 µM (inactive); in the assay on SF-268 it was 27.2 µM (inactive). Also, the GI50 in the assay on MDA-MB-231 was 14 µM (inactive); in the assay with NCI-H522 it was 16.1 µM (inactive); with RXF 393, 10.7 µM (inactive); in the assay with A498, 16.7 µM (inactive); in the assay with KM12, 14.9 µM (inactive); in the assay on 786-0, 15.7 µM (inactive). Further, the GI50 in the assay with A549 was 17.5 µM (inactive).

For `COc1cc(/C=N/c2nc3cc4sc(/N=C/c5cc(OC)c(OC)c(OC)c5)nc4cc3s2)cc(OC)c1OC`, the GI50 was > 100 µM (inactive) in the assay on BT-549; > 100 µM (inactive) in the assay with OVCAR-4; > 100 µM (inactive) with HOP-92; 42 µM (inactive) in the assay on EKVX; > 100 µM (inactive) in the assay with SK-OV-3; 39.1 µM (inactive) in the assay with MDA-MB-435. The GI50 with UACC-257 is 73.6 µM (inactive); with OVCAR-5, > 100 µM (inactive); in the assay with SK-MEL-2, 72.4 µM (inactive); in the assay on SW-620 it was 33.1 µM (inactive); in the assay on SK-MEL-5 it was 37.1 µM (inactive); with SF-268, 89.1 µM (inactive). Further, the GI50 in the assay with MDA-MB-231 is 79.4 µM (inactive); in the assay on NCI-H522, 45.8 µM (inactive); in the assay on RXF 393, > 100 µM (inactive); in the assay with A498, > 100 µM (inactive); in the assay with KM12, 52.1 µM (inactive); in the assay on 786-0, 49.2 µM (inactive). The GI50 in the assay with A549 is 40.5 µM (inactive).

Consider `S=C(S)NCCN1CCNCC1`, for which the GI50 with BT-549 is 88.1 µM (inactive); with OVCAR-4, > 100 µM (inactive); in the assay on HOP-92 it was 75.9 µM (inactive); with EKVX it was 57.1 µM (inactive); with SK-OV-3, > 100 µM (inactive); in the assay with MDA-MB-435, 62.1 µM (inactive). Moreover, the GI50 in the assay with UACC-257 is 20.7 µM (inactive); with OVCAR-5 it was > 100 µM (inactive); with SK-MEL-2, 67.1 µM (inactive); in the assay on SW-620, 20.7 µM (inactive); in the assay with SK-MEL-5, 52.1 µM (inactive); with SF-268, 99.3 µM (inactive). Moreover, the GI50 in the assay on MDA-MB-231 was > 100 µM (inactive); in the assay with NCI-H522, 14.7 µM (inactive); in the assay with RXF 393, 19.8 µM (inactive); in the assay with A498, > 100 µM (inactive); with KM12, > 100 µM (inactive); in the assay on 786-0, 22.3 µM (inactive). In addition, the GI50 in the assay on A549 was > 100 µM (inactive).

For the molecule `O=C(Nc1sccc1S(=O)(=O)c1ccc(Cl)cc1)c1ccc(Cl)cc1`, the GI50 with BT-549 was > 100 µM (inactive); in the assay with OVCAR-4, 25.6 µM (inactive); with HOP-92 it was 73.1 µM (inactive); with EKVX, 31 µM (inactive); in the assay with SK-OV-3 it was 52.6 µM (inactive); in the assay with MDA-MB-435 it was > 100 µM (inactive). Besides, the GI50 is > 100 µM (inactive) in the assay with UACC-257; > 100 µM (inactive) in the assay on OVCAR-5; 59.8 µM (inactive) in the assay with SK-MEL-2; > 100 µM (inactive) in the assay on SW-620; 74.3 µM (inactive) in the assay on SK-MEL-5; 65.9 µM (inactive) with SF-268. The GI50 in the assay with MDA-MB-231 was 35.2 µM (inactive); with NCI-H522, > 100 µM (inactive); with RXF 393, 65.6 µM (inactive); with A498, > 100 µM (inactive); in the assay with KM12 it was > 100 µM (inactive); in the assay with 786-0 it was 52.7 µM (inactive). In addition, the GI50 with A549 is 94.8 µM (inactive).

Turning to `N=C(N)NC(=N)Nc1ccc(S(N)(=O)=O)cc1`, the GI50 in the assay on BT-549, in the assay on OVCAR-4, in the assay with HOP-92, with EKVX, in the assay with SK-OV-3 and with MDA-MB-435 was > 100 µM (inactive) each time. Moreover, the GI50 in the assay with UACC-257, in the assay with OVCAR-5, in the assay on SK-MEL-2, with SW-620, in the assay with SK-MEL-5 and with SF-268 was > 100 µM (inactive) in each case. In addition, the GI50 in the assay with MDA-MB-231, in the assay on NCI-H522, in the assay on RXF 393, in the assay on A498, with KM12 and in the assay on 786-0 was > 100 µM (inactive) throughout. Also, the GI50 with A549 was > 100 µM (inactive).

Regarding `CSC(=S)NN=C1CCCC1.CSC(=S)NN=C1CCCC1.[Zn+2]`, the GI50 in the assay with BT-549 was 24 µM (inactive); in the assay on OVCAR-4, 52.5 µM (inactive); with HOP-92, 0.0415 µM (active); with EKVX it was 55.1 µM (inactive); in the assay with SK-OV-3, > 100 µM (inactive); with MDA-MB-435 it was 28.4 µM (inactive). Besides, the GI50 with UACC-257 was 24 µM (inactive); in the assay with OVCAR-5, 31.3 µM (inactive); in the assay with SK-MEL-2 it was 22.7 µM (inactive); in the assay on SW-620, 17.1 µM (inactive); with SK-MEL-5 it was 57.1 µM (inactive); in the assay on SF-268 it was 34.1 µM (inactive). For the same molecule, the GI50 in the assay on MDA-MB-231 was 17.8 µM (inactive); with NCI-H522, 15.7 µM (inactive); with RXF 393, 28.4 µM (inactive); in the assay with A498 it was > 100 µM (inactive); in the assay on KM12, 41 µM (inactive); with 786-0, 33.5 µM (inactive). Besides, the GI50 with A549 was 18.8 µM (inactive).

Consider `CNC(=S)NN=C1NCCCCN1`, for which the GI50 with BT-549, in the assay on OVCAR-4, in the assay with HOP-92, in the assay on EKVX, with SK-OV-3 and in the assay on MDA-MB-435 was > 100 µM (inactive) each time. The GI50 in the assay with UACC-257, with OVCAR-5, with SK-MEL-2, in the assay on SW-620, in the assay on SK-MEL-5 and with SF-268 was > 100 µM (inactive) each time. In addition, the GI50 in the assay with MDA-MB-231, in the assay on NCI-H522, in the assay on RXF 393, in the assay on A498, in the assay on KM12 and with 786-0 was > 100 µM (inactive) throughout. In addition, the GI50 in the assay on A549 was > 100 µM (inactive).

Turning to `Cc1cc2c(cc1-c1cc3c(cc1C)C(C(C)C)=C(O)C(=O)/C3=C\Nc1c3ccccc3nc3ccccc13)/C(=C/Nc1c3ccccc3nc3ccccc13)C(=O)C(O)=C2C(C)C`, the GI50 was 5.85 µM (inactive) in the assay on BT-549; 3.15 µM (inactive) in the assay with OVCAR-4; 5.73 µM (inactive) with HOP-92; 1.75 µM (inactive) in the assay with EKVX; 3.34 µM (inactive) in the assay on SK-OV-3; 4.6 µM (inactive) with MDA-MB-435. For the same molecule, the GI50 with UACC-257 is 4.34 µM (inactive); in the assay on OVCAR-5 it was 4.4 µM (inactive); with SK-MEL-2 it was 5.58 µM (inactive); in the assay on SW-620 it was 2.9 µM (inactive); in the assay with SK-MEL-5 it was 3.99 µM (inactive); in the assay on SF-268, 3.36 µM (inactive). Moreover, the GI50 is 4.55 µM (inactive) with MDA-MB-231; 1.13 µM (inactive) in the assay on NCI-H522; 5.24 µM (inactive) in the assay with RXF 393; 7.03 µM (inactive) in the assay with A498; 3.09 µM (inactive) in the assay with KM12; 2.72 µM (inactive) in the assay on 786-0. Besides, the GI50 in the assay on A549 was 2.97 µM (inactive).

On to `COc1ccc2nc3cc([N+](=O)[O-])ccc3c(NNc3ccccc3)c2c1`, for which the GI50 in the assay with BT-549 was 28.5 µM (inactive); in the assay with OVCAR-4 it was 60.7 µM (inactive); with HOP-92, 19.8 µM (inactive); with EKVX, 16 µM (inactive); in the assay with SK-OV-3 it was > 73.6 µM (inactive); in the assay with MDA-MB-435, 29.6 µM (inactive). The GI50 was 1.19 µM (inactive) in the assay with UACC-257; 2.07 µM (inactive) with OVCAR-5; 27.4 µM (inactive) in the assay on SK-MEL-2; 17.3 µM (inactive) in the assay with SW-620; 16.7 µM (inactive) in the assay on SK-MEL-5; 30.8 µM (inactive) in the assay on SF-268. The GI50 with MDA-MB-231 was 20.6 µM (inactive); with NCI-H522 it was 20.7 µM (inactive); in the assay with RXF 393, 47.9 µM (inactive); in the assay with A498, 0.0681 µM (active); in the assay on KM12, 12.4 µM (inactive); in the assay on 786-0 it was 18.4 µM (inactive). Also, the GI50 with A549 was 13.9 µM (inactive).
